Results published in PubChem BioAssay AID2060623 (Molecular Pharmacology Branch, DTP, NCI, 2025).
pIC50: −log10 of the molar value.

System: 227483-062-R1-J1-PDC complex spheroids with HUVEC/MSC, viability
Assay: Anticancer human tumor 227483-062-R1-J1-PDC patient-derived pancreatic carcinoma cell line growth inhibition [CLK]
Settings: for pIC50: curve of first compound; for viability, T/C: stronger effect = lower value
How it was run: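 Multi-cell-type spheroids combined patient-derived tumor cells with HUVEC endothelial cells and human mesenchymal stem cells. Paired agents were dosed in half-log steps down from about clinical Cmax, or from 10 microM where Cmax was unknown.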

[1] = second compound 0.0316 µM, first compound 0.0316 µM
[2] = second compound 0.0316 µM, first compound 0.1 µM
[3] = second compound 0.0316 µM, first compound 0.316 µM
[4] = second compound 0.0316 µM, first compound 1 µM
[5] = second compound 0.0316 µM, first compound 3.16 µM
[6] = second compound 0.0316 µM, first compound 10 µM
[7] = second compound 0.1 µM, first compound 0.0316 µM
[8] = second compound 0.1 µM, first compound 0.1 µM
[9] = second compound 0.1 µM, first compound 0.316 µM
[10] = second compound 0.1 µM, first compound 1 µM
[11] = second compound 0.1 µM, first compound 3.16 µM
[12] = second compound 0.1 µM, first compound 10 µM
[13] = second compound 0.316 µM, first compound 0.0316 µM
[14] = second compound 0.316 µM, first compound 0.1 µM
[15] = second compound 0.316 µM, first compound 0.316 µM
[16] = second compound 0.316 µM, first compound 1 µM
[17] = second compound 0.316 µM, first compound 3.16 µM
[18] = second compound 0.316 µM, first compound 10 µM
[19] = second compound 1 µM, first compound 0.0316 µM
[20] = second compound 1 µM, first compound 0.1 µM
[21] = second compound 1 µM, first compound 0.316 µM
[22] = second compound 1 µM, first compound 1 µM
[23] = second compound 1 µM, first compound 3.16 µM
[24] = second compound 1 µM, first compound 10 µM
[25] = second compound 3.16 µM, first compound 0.0316 µM
[26] = second compound 3.16 µM, first compound 0.1 µM
[27] = second compound 3.16 µM, first compound 0.316 µM
[28] = second compound 3.16 µM, first compound 1 µM
[29] = second compound 3.16 µM, first compound 3.16 µM
[30] = second compound 3.16 µM, first compound 10 µM
[31] = second compound 10 µM, first compound 0.0316 µM
[32] = second compound 10 µM, first compound 0.1 µM
[33] = second compound 10 µM, first compound 0.316 µM
[34] = second compound 10 µM, first compound 1 µM
[35] = second compound 10 µM, first compound 3.16 µM
[36] = second compound 10 µM, first compound 10 µM
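Also: spheroids exposed to compounds for seven days before readout.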
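For viability, T/C in this document: percent of DMSO vehicle control luminescence as 100% viability.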

## C=CC(=O)N1CCN(c2nc(=O)n(-c3c(C)ccnc3C(C)C)c3nc(-c4c(O)cccc4F)c(F)cc23)C(C)C1 (centres undefined) + CN1CCN(c2cc(C(=O)Nc3cc4cc(-c5cnn(C)c5)ccc4cn3)ccn2)CC1
Second compound 0.0316 µM
  pIC50: < 5.00
Second compound 0.1 µM
  pIC50: < 5.00
Second compound 0.316 µM
  pIC50: > 7.50
Second compound 1 µM
  pIC50: > 7.50
Second compound 3.16 µM
  pIC50: > 7.50
Second compound 10 µM
  pIC50: > 7.50
[1]
  viability, T/C: 90.4%
[2]
  viability, T/C: 97.5%
[3]
  viability, T/C: 94.7%
[4]
  viability, T/C: 104%
[5]
  viability, T/C: 104%
[6]
  viability, T/C: 85.5%
[7]
  viability, T/C: 63.2%
[8]
  viability, T/C: 68.1%
[9]
  viability, T/C: 63.1%
[10]
  viability, T/C: 76.8%
[11]
  viability, T/C: 66.4%
[12]
  viability, T/C: 52.7%
[13]
  viability, T/C: 6.84%
[14]
  viability, T/C: 6.59%
[15]
  viability, T/C: 5.21%
[16]
  viability, T/C: 7.81%
[17]
  viability, T/C: 5.13%
[18]
  viability, T/C: 3.55%
[19]
  viability, T/C: 3.36%
[20]
  viability, T/C: 2.83%
[21]
  viability, T/C: 2.54%
[22]
  viability, T/C: 3.57%
[23]
  viability, T/C: 6.05%
[24]
  viability, T/C: 3.88%
[25]
  viability, T/C: 3.58%
[26]
  viability, T/C: 3.65%
[27]
  viability, T/C: 5.09%
[28]
  viability, T/C: 5.88%
[29]
  viability, T/C: 6.54%
[30]
  viability, T/C: 6.07%
[31]
  viability, T/C: 3.12%
[32]
  viability, T/C: 2.35%
[33]
  viability, T/C: 4.11%
[34]
  viability, T/C: 3.93%
[35]
  viability, T/C: 6.11%
[36]
  viability, T/C: 3.94%

## CC1COCCN1c1cc(C2(S(C)(=N)=O)CC2)nc(-c2ccnc3[nH]ccc23)n1 (centres undefined) + CNC(=O)c1ccc(Nc2nc(OC3CCCC3)c3c(-c4ccc5nc(C)oc5c4)c[nH]c3n2)c(OC)c1
Second compound 0.0316 µM
  pIC50: < 5.00
Second compound 0.1 µM
  pIC50: < 5.00
Second compound 0.316 µM
  pIC50: 5.15
Second compound 1 µM
  pIC50: 5.86
Second compound 3.16 µM
  pIC50: 6.63
Second compound 10 µM
  pIC50: > 7.50
[1]
  viability, T/C: 110%
[2]
  viability, T/C: 105%
[3]
  viability, T/C: 110%
[4]
  viability, T/C: 102%
[5]
  viability, T/C: 85.3%
[6]
  viability, T/C: 63.3%
[7]
  viability, T/C: 125%
[8]
  viability, T/C: 108%
[9]
  viability, T/C: 103%
[10]
  viability, T/C: 108%
[11]
  viability, T/C: 65%
[12]
  viability, T/C: 62.3%
[13]
  viability, T/C: 96.4%
[14]
  viability, T/C: 107%
[15]
  viability, T/C: 92.9%
[16]
  viability, T/C: 79.7%
[17]
  viability, T/C: 64.1%
[18]
  viability, T/C: 44.3%
[19]
  viability, T/C: 76.8%
[20]
  viability, T/C: 68.9%
[21]
  viability, T/C: 73.4%
[22]
  viability, T/C: 53%
[23]
  viability, T/C: 39.1%
[24]
  viability, T/C: 30.6%
[25]
  viability, T/C: 59.7%
[26]
  viability, T/C: 52.9%
[27]
  viability, T/C: 48.1%
[28]
  viability, T/C: 40.9%
[29]
  viability, T/C: 33.9%
[30]
  viability, T/C: 18.6%
[31]
  viability, T/C: 39.8%
[32]
  viability, T/C: 34.6%
[33]
  viability, T/C: 39.5%
[34]
  viability, T/C: 32.5%
[35]
  viability, T/C: 24.2%
[36]
  viability, T/C: 14.5%
